From patent publication EP1153612A1, “ANTICANCER AGENT POTENTIATORS” (Tsuruo, Takashi, priority 1999, dated 2000) come the findings set out here.

Each structure is given as a SMILES string.

The test has as its system human colon cancer cell HT29. The test is described as follows: Anticancer therapy in human cancer cell-transplanted nude mouse model (size of tumor lump). In kind it is in vivo, nude mouse BALB/cAnNCrj-nu/nu. The following applies: Example 5; intraperitoneally three times every 4 days; etoposide 33 mg/kg, lactacystin 40 mg/kg; in combined use lactacystin 5 hours before etoposide; FIG. 11. From the text:
A human colon cancer cell HT29 was transplanted subcutaneously to a nude mouse to examine a therapeutic effect of combined use of lactacystin, the proteasome inhibiting agent, with etoposide, the anticancer drug targeting topoisomerase II.
As an experimental animal, the nude mouse BALB/cAnNCrj-nu/nu of 8-week old female (Charles River Laboratories product) was used. In order to form a tumor lump in the nude mouse, 1×10^7 HT29 cells was subcutaneously transplanted. After 8 to 10 days of transplanting, the tumor lump of HT29 cells grew to […] and at this point, the therapy was started. […]
The therapy was conducted by dividing the HT29 tumor-transplanted mice into 4 groups to assign 4 animals to 1 group as follows by administering intraperitoneally three times every 4 days: (1) control group untreated with saline, (2) etoposide 33 mg/kg, (3) lactacystin 40 mg/kg, (4) lactacystin 40 mg/kg and etoposide 33 mg/kg. […] Since start of the therapy, a size of the tumor lump was measured to measure effect of the therapy by administration of drugs once every 4 days. […]
The effect of therapy by simultaneous administration of the proteasome inhibiting agent, lactacystin, and the topoisomerase II-targeting anticancer, doxorubicin was examined. […] After start of treatment, once every 4 to 5 days, the size of the tumor lump was measured to measure the effect of treatment by drug administration.

In the case of `CC(=O)N[C@@H](CSC(=O)[C@]1([C@@H](O)C(C)C)NC(=O)[C@H](C)[C@@H]1O)C(=O)O` [lactacystin], the “suppression of tumor proliferation (size of the tumor lump)” value is “less suppression of tumor proliferation”.
